Test results: ChEMBL document CHEMBL5303573, “Mapping human microbiome drug metabolism by gut bacteria and their genes” (Nature, 2019)

conditions: limosilactobacillus reuteri cf48-3a, 12 h, 2 µM
Description: The drug is tested on Lactobacillus reuteri CF48-3A strain: BEI HM-102 for biotransformation. The drug concentrations were measured before and after a 12-h incubation by liquid-chromatography-coupled mass spectrometry (LC–MS)

SMILES | Bacterial Biotransformation
OCCN(CCO)c1nc(N2CCCCC2)c2nc(N(CCO)CCO)nc(N3CCCCC3)c2n1 [DIPYRIDAMOLE] | Compound NOT metabolized
Cc1ccccc1C(OCCN(C)C)c1ccccc1.O=C(O)CC(O)(CC(=O)O)C(=O)O (configuration not stated) [ORPHENADRINE CITRATE] | Compound NOT metabolized
O=C(CCCN1CCC(O)(c2ccc(Cl)cc2)CC1)c1ccc(F)cc1 [HALOPERIDOL] | Compound NOT metabolized

assay: The drug is tested on Bacteroides finegoldii strain: DSM17565 for biotransformation. The drug concentrations were measured before and after a 12-h incubation by liquid-chromatography-coupled mass spectrometry (LC–MS); conditions: 2 µM

SMILES | Bacterial Biotransformation
OCCN(CCO)c1nc(N2CCCCC2)c2nc(N(CCO)CCO)nc(N3CCCCC3)c2n1 [DIPYRIDAMOLE] | Compound NOT metabolized
Cc1ccccc1C(OCCN(C)C)c1ccccc1.O=C(O)CC(O)(CC(=O)O)C(=O)O (configuration not stated) [ORPHENADRINE CITRATE] | Compound NOT metabolized
O=C(CCCN1CCC(O)(c2ccc(Cl)cc2)CC1)c1ccc(F)cc1 [HALOPERIDOL] | Compound NOT metabolized

conditions: akkermansia muciniphila, 12 h, 2 µM
Description: The drug is tested on Akkermansia muciniphila strain: ATCC BAA-835 for biotransformation. The drug concentrations were measured before and after a 12-h incubation by liquid-chromatography-coupled mass spectrometry (LC–MS)

SMILES | Bacterial Biotransformation
OCCN(CCO)c1nc(N2CCCCC2)c2nc(N(CCO)CCO)nc(N3CCCCC3)c2n1 [DIPYRIDAMOLE] | Compound NOT metabolized
O=C(CCCN1CCC(O)(c2ccc(Cl)cc2)CC1)c1ccc(F)cc1 [HALOPERIDOL] | Compound NOT metabolized

conditions: bacteroides fragilis, 12 h, 2 µM
Description: The drug is tested on Bacteroides fragilis strain: NCTC 9343 for biotransformation. The drug concentrations were measured before and after a 12-h incubation by liquid-chromatography-coupled mass spectrometry (LC–MS)

SMILES | Bacterial Biotransformation
OCCN(CCO)c1nc(N2CCCCC2)c2nc(N(CCO)CCO)nc(N3CCCCC3)c2n1 [DIPYRIDAMOLE] | Compound metabolized
O=C(CCCN1CCC(O)(c2ccc(Cl)cc2)CC1)c1ccc(F)cc1 [HALOPERIDOL] | Compound NOT metabolized

assay: The drug is tested on Providencia stuartii strain: ATCC25827 for biotransformation. The drug concentrations were measured before and after a 12-h incubation by liquid-chromatography-coupled mass spectrometry (LC–MS); conditions: 2 µM

SMILES | Bacterial Biotransformation
OCCN(CCO)c1nc(N2CCCCC2)c2nc(N(CCO)CCO)nc(N3CCCCC3)c2n1 [DIPYRIDAMOLE] | Compound NOT metabolized
Cc1ccccc1C(OCCN(C)C)c1ccccc1.O=C(O)CC(O)(CC(=O)O)C(=O)O (configuration not stated) [ORPHENADRINE CITRATE] | Compound NOT metabolized
O=C(CCCN1CCC(O)(c2ccc(Cl)cc2)CC1)c1ccc(F)cc1 [HALOPERIDOL] | Compound NOT metabolized

conditions: bacteroides thetaiotaomicron, 12 h, 2 µM
Description: The drug is tested on Bacteroides thetaiotaomicron strain: 3731 for biotransformation. The drug concentrations were measured before and after a 12-h incubation by liquid-chromatography-coupled mass spectrometry (LC–MS)

SMILES | Bacterial Biotransformation
OCCN(CCO)c1nc(N2CCCCC2)c2nc(N(CCO)CCO)nc(N3CCCCC3)c2n1 [DIPYRIDAMOLE] | Compound NOT metabolized
Cc1ccccc1C(OCCN(C)C)c1ccccc1.O=C(O)CC(O)(CC(=O)O)C(=O)O (configuration not stated) [ORPHENADRINE CITRATE] | Compound NOT metabolized
O=C(CCCN1CCC(O)(c2ccc(Cl)cc2)CC1)c1ccc(F)cc1 [HALOPERIDOL] | Compound NOT metabolized

assay: The drug is tested on Bifidobacterium ruminantium strain: fecal isolate for biotransformation. The drug concentrations were measured before and after a 12-h incubation by liquid-chromatography-coupled mass spectrometry (LC–MS); conditions: 2 µM

SMILES | Bacterial Biotransformation
O=C(CCCN1CCC(O)(c2ccc(Cl)cc2)CC1)c1ccc(F)cc1 [HALOPERIDOL] | Compound NOT metabolized

assay: The drug is tested on Collinsella aerofaciens strain: ATCC25986 for biotransformation. The drug concentrations were measured before and after a 12-h incubation by liquid-chromatography-coupled mass spectrometry (LC–MS); conditions: 2 µM

SMILES | Bacterial Biotransformation
OCCN(CCO)c1nc(N2CCCCC2)c2nc(N(CCO)CCO)nc(N3CCCCC3)c2n1 [DIPYRIDAMOLE] | Compound NOT metabolized
Cc1ccccc1C(OCCN(C)C)c1ccccc1.O=C(O)CC(O)(CC(=O)O)C(=O)O (configuration not stated) [ORPHENADRINE CITRATE] | Compound NOT metabolized
O=C(CCCN1CCC(O)(c2ccc(Cl)cc2)CC1)c1ccc(F)cc1 [HALOPERIDOL] | Compound NOT metabolized

assay: The drug is tested on Eubacterium ventriosum strain: ATCC27560 for biotransformation. The drug concentrations were measured before and after a 12-h incubation by liquid-chromatography-coupled mass spectrometry (LC–MS); assay type: ADME; set-up: dose 2 uM, timepoint 0 vs 12 hours; conditions: 2 µM

SMILES | Bacterial Biotransformation
OCCN(CCO)c1nc(N2CCCCC2)c2nc(N(CCO)CCO)nc(N3CCCCC3)c2n1 [DIPYRIDAMOLE] | Compound NOT metabolized
O=C(CCCN1CCC(O)(c2ccc(Cl)cc2)CC1)c1ccc(F)cc1 [HALOPERIDOL] | Compound NOT metabolized

assay: The drug is tested on Bacteroides fragilis strain: HMW615 for biotransformation. The drug concentrations were measured before and after a 12-h incubation by liquid-chromatography-coupled mass spectrometry (LC–MS); conditions: 2 µM

SMILES | Bacterial Biotransformation
OCCN(CCO)c1nc(N2CCCCC2)c2nc(N(CCO)CCO)nc(N3CCCCC3)c2n1 [DIPYRIDAMOLE] | Compound NOT metabolized
Cc1ccccc1C(OCCN(C)C)c1ccccc1.O=C(O)CC(O)(CC(=O)O)C(=O)O (configuration not stated) [ORPHENADRINE CITRATE] | Compound NOT metabolized

assay: The drug is tested on Bacteroides dorei strain: DSM17855 for biotransformation. The drug concentrations were measured before and after a 12-h incubation by liquid-chromatography-coupled mass spectrometry (LC–MS); conditions: phocaeicola dorei, 2 µM

SMILES | Bacterial Biotransformation
OCCN(CCO)c1nc(N2CCCCC2)c2nc(N(CCO)CCO)nc(N3CCCCC3)c2n1 [DIPYRIDAMOLE] | Compound metabolized
Cc1ccccc1C(OCCN(C)C)c1ccccc1.O=C(O)CC(O)(CC(=O)O)C(=O)O (configuration not stated) [ORPHENADRINE CITRATE] | Compound NOT metabolized
O=C(CCCN1CCC(O)(c2ccc(Cl)cc2)CC1)c1ccc(F)cc1 [HALOPERIDOL] | Compound NOT metabolized

assay: The drug is tested on Anaerotruncus colihominis strain: DSM17241 for biotransformation. The drug concentrations were measured before and after a 12-h incubation by liquid-chromatography-coupled mass spectrometry (LC–MS); conditions: 2 µM

SMILES | Bacterial Biotransformation
OCCN(CCO)c1nc(N2CCCCC2)c2nc(N(CCO)CCO)nc(N3CCCCC3)c2n1 [DIPYRIDAMOLE] | Compound NOT metabolized
Cc1ccccc1C(OCCN(C)C)c1ccccc1.O=C(O)CC(O)(CC(=O)O)C(=O)O (configuration not stated) [ORPHENADRINE CITRATE] | Compound NOT metabolized

assay: The drug is tested on Ruminococcus gnavus strain: ATCC29149 for biotransformation. The drug concentrations were measured before and after a 12-h incubation by liquid-chromatography-coupled mass spectrometry (LC–MS); conditions: mediterraneibacter gnavus, 2 µM

SMILES | Bacterial Biotransformation
OCCN(CCO)c1nc(N2CCCCC2)c2nc(N(CCO)CCO)nc(N3CCCCC3)c2n1 [DIPYRIDAMOLE] | Compound NOT metabolized
Cc1ccccc1C(OCCN(C)C)c1ccccc1.O=C(O)CC(O)(CC(=O)O)C(=O)O (configuration not stated) [ORPHENADRINE CITRATE] | Compound NOT metabolized
O=C(CCCN1CCC(O)(c2ccc(Cl)cc2)CC1)c1ccc(F)cc1 [HALOPERIDOL] | Compound NOT metabolized

assay: The drug is tested on Eubacterium hallii strain: DSM3353 for biotransformation. The drug concentrations were measured before and after a 12-h incubation by liquid-chromatography-coupled mass spectrometry (LC–MS); conditions: anaerobutyricum hallii, 2 µM

SMILES | Bacterial Biotransformation
OCCN(CCO)c1nc(N2CCCCC2)c2nc(N(CCO)CCO)nc(N3CCCCC3)c2n1 [DIPYRIDAMOLE] | Compound NOT metabolized
Cc1ccccc1C(OCCN(C)C)c1ccccc1.O=C(O)CC(O)(CC(=O)O)C(=O)O (configuration not stated) [ORPHENADRINE CITRATE] | Compound NOT metabolized
O=C(CCCN1CCC(O)(c2ccc(Cl)cc2)CC1)c1ccc(F)cc1 [HALOPERIDOL] | Compound NOT metabolized

assay: The drug is tested on Bacteroides sp. WH2 strain: WH2 for biotransformation. The drug concentrations were measured before and after a 12-h incubation by liquid-chromatography-coupled mass spectrometry (LC–MS); conditions: bacteroides sp. wh2, 12 h, 2 µM

SMILES | Bacterial Biotransformation
OCCN(CCO)c1nc(N2CCCCC2)c2nc(N(CCO)CCO)nc(N3CCCCC3)c2n1 [DIPYRIDAMOLE] | Compound NOT metabolized
Cc1ccccc1C(OCCN(C)C)c1ccccc1.O=C(O)CC(O)(CC(=O)O)C(=O)O (configuration not stated) [ORPHENADRINE CITRATE] | Compound NOT metabolized
O=C(CCCN1CCC(O)(c2ccc(Cl)cc2)CC1)c1ccc(F)cc1 [HALOPERIDOL] | Compound NOT metabolized

conditions: roseburia intestinalis, 12 h, 2 µM
Description: The drug is tested on Roseburia intestinalis strain: L1-82 for biotransformation. The drug concentrations were measured before and after a 12-h incubation by liquid-chromatography-coupled mass spectrometry (LC–MS)

SMILES | Bacterial Biotransformation
OCCN(CCO)c1nc(N2CCCCC2)c2nc(N(CCO)CCO)nc(N3CCCCC3)c2n1 [DIPYRIDAMOLE] | Compound NOT metabolized
Cc1ccccc1C(OCCN(C)C)c1ccccc1.O=C(O)CC(O)(CC(=O)O)C(=O)O (configuration not stated) [ORPHENADRINE CITRATE] | Compound NOT metabolized
O=C(CCCN1CCC(O)(c2ccc(Cl)cc2)CC1)c1ccc(F)cc1 [HALOPERIDOL] | Compound NOT metabolized

assay: The drug is tested on Bifidobacterium longum subsp. Infantis strain: CCUG52486 for biotransformation. The drug concentrations were measured before and after a 12-h incubation by liquid-chromatography-coupled mass spectrometry (LC–MS); conditions: 2 µM

SMILES | Bacterial Biotransformation
OCCN(CCO)c1nc(N2CCCCC2)c2nc(N(CCO)CCO)nc(N3CCCCC3)c2n1 [DIPYRIDAMOLE] | Compound NOT metabolized
Cc1ccccc1C(OCCN(C)C)c1ccccc1.O=C(O)CC(O)(CC(=O)O)C(=O)O (configuration not stated) [ORPHENADRINE CITRATE] | Compound NOT metabolized
O=C(CCCN1CCC(O)(c2ccc(Cl)cc2)CC1)c1ccc(F)cc1 [HALOPERIDOL] | Compound NOT metabolized

conditions: bacteroides intestinalis, 12 h, 2 µM
Description: The drug is tested on Bacteroides intestinalis strain: DSM17393 for biotransformation. The drug concentrations were measured before and after a 12-h incubation by liquid-chromatography-coupled mass spectrometry (LC–MS)

SMILES | Bacterial Biotransformation
OCCN(CCO)c1nc(N2CCCCC2)c2nc(N(CCO)CCO)nc(N3CCCCC3)c2n1 [DIPYRIDAMOLE] | Compound NOT metabolized
Cc1ccccc1C(OCCN(C)C)c1ccccc1.O=C(O)CC(O)(CC(=O)O)C(=O)O (configuration not stated) [ORPHENADRINE CITRATE] | Compound NOT metabolized
O=C(CCCN1CCC(O)(c2ccc(Cl)cc2)CC1)c1ccc(F)cc1 [HALOPERIDOL] | Compound NOT metabolized
